Reference: US9725441B2, “Histone demethylase inhibitors” (CELGENE QUANTICEL RESEARCH, INC., priority 2012, dated 2017)

The substances below were run against JMJD2C (Homo sapiens (Human), UniProt Q9H3R0) (assay: JMJD2C in vitro enzyme inhibition assay (TR-FRET)). Conditions: 0.3 nM JMJD2C, 300 nM H3K9me3-biotin peptide, 2 μM alpha-ketoglutaric acid.
Format: biochemical
Description: This assay determines the ability of a test compound to inhibit Jarid1A, Jarid1B, and JMJD2C demethylase activity. Baculovirus expressed Jarid1A (GenBank Accession #NM_001042603, AA1-1090) was purchased from BPS Bioscience (Cat#50110). Baculovirus expressed Jarid1B (GenBank Accession #NM_006618, AA 2-751) was purchased from BPS Bioscience (Cat #50121) or custom made by MolecularThroughput. Baculovirus-expressed JMJD2C (GenBank Accession #BC143571, AA 2-372) was purchased from BPS Bioscience (Cat#50105).
The ability of test compounds to inhibit the activity of JMJD2C was determined in 384-well plate format under the following reaction conditions: 0.3 nM JMJD2C, 300 nM H3K9me3-biotin labeled peptide (Anaspec cat #64360), 2 μM alpha-ketoglutaric acid in assay buffer of 50 mM HEPES, pH7.3, 0.005% Brij35, 0.5 mM TCEP, 0.2 mg/ml BSA, 50 μM sodium L-ascorbate, and 2 μM ammonium iron(II) sulfate. Reaction product was determined quantitatively by TR-FRET after the addition of detection reagent Phycolink Streptavidin-allophycocyanin (Prozyme) and Europium-anti-di-methylated histone H3 lysine 9 (H3K9me2) antibody (PerkinElmer) in the presence of 5 mM EDTA in LANCE detection buffer (PerkinElmer) at a final concentration of 50 nM and 1 nM, respectively.
The reaction mixture was incubated at room temperature for 30 min, and terminated by the addition of 6 μl of 5 mM EDTA in LANCE detection buffer containing 100 nM Phycolink Streptavidin-allophycocyanin and 2 nM Europium-anti-H3K9me2 antibody. Plates were read by EnVisionMultilabel Reader in TR-FRET mode (excitation at 320 nm, emission at 615 nm and 665 nm) after 1 hr incubation at rt. A ratio was calculated (665/615) for each well and fitted to determine inhibition constant (IC50).

Sequence of JMJD2C (Q9H3R0 2-372): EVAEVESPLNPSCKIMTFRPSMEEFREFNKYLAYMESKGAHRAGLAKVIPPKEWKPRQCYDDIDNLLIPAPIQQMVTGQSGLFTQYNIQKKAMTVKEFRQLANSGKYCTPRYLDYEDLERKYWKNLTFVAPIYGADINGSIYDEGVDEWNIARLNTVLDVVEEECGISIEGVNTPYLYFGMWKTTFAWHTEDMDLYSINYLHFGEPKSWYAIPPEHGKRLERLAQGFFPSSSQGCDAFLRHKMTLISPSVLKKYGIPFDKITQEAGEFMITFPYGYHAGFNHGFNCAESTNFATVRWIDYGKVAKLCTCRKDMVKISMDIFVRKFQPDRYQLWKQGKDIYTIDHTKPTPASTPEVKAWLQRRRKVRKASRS

Row | Substance | IC50
1 | 3-{[(6-chloro-1,2,3,4-tetrahydronaphthalen-1-yl)methyl]amino}pyridine-4-carboxylic acid [Example 67] | 100 to 1000 nM
2 | 3-{[(6-chloro-1-hydroxy-1,2,3,4-tetrahydronaphthalen-1-yl)methyl]amino}pyridine-4-carboxylic acid [Example 68] | 100 to 1000 nM
3 | 3-{[(6-fluoro-3,4-dihydro-2H-chromen-4-yl)methyl]amino}-pyridine-4-carboxylic acid [Example 65] | ≤ 100 nM
